Our source for the EC50 values is US12264173B2 (GILEAD SCIENCES, INC., priority 2020, dated 2025).

Assay type in all cases: cell-based
The test system of test [1] is HRV16. Kind of test: HRV16 HeLa EC50 (cytopathic effect in H1-HeLa cells). Put shortly:
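H1-HeLa cells seeded one day before, given 3-fold serial compound dilutions in triplicate just prior to infection with pre-titrated virus. Incubated 96 h at 33 °C/5% CO2; protection from cytopathic effect read as viability by CellTiter-Glo luminescence, normalised to infected untreated (0%) and uninfected (100%) controls.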

In test [2] the test system is Dengue 2, New Guinea strain (NGC). Kind of test: DENV moDC EC50 (qPCR in human monocyte-derived dendritic cells). The conditions noted are these: Dengue virus, Dendritic cell; Table 3; human moDCs, 48 hours. On the procedure: Human monocyte-derived dendritic cells (moDCs) were derived from CD14+ monocytes (AllCells) cultured in Human Mo-DC Differentiation medium containing GM-CSF and IL-4 (Miltenyi Biotec). On day 7, moDCs were harvested by mechanical disruption, washed and suspended in serum-free RPMI. moDCs were infected with Vero-derived Dengue 2, New Guinea strain (NGC) at a MOI=0.1 for two hours in serum-free RPMI with gentle agitation at 37° C. Cells were washed and resuspended in 10% serum-containing RPMI (Gibco, supplemented with sodium pyruvate, NEAA, Penicillin-Streptomycin). […] were plated in triplicate in 96-well plates with compounds dispensed at graded doses (Hewlett-Packard D300 Digital Dispenser). All wells were normalized to 0.25% DMSO. At 48 hours, cells were washed with 1×PBS and all supernatants removed. Total RNA was extracted using RNEasy 96 plates (Qiagen) and used to generate first-strand cDNA using XLT cDNA 5× Supermix (QuantaBio). cDNA was used as a template in a Taqman qPCR duplex reaction specific to DENV2 viral and GAPDH gene expression. EC50 values were determined using Prism Graphpad software, with normalization to a positive control and no compound negative control wells.
On the technique in general: Quantitative PCR measures a nucleic acid by following its amplification.

Test [3] has as its system HCV Rep 2A. Kind of test: HCV Rep 2A EC50 (replicon luciferase). The conditions noted are these: Hepatitis C virus, 72 h; Table 4; replicon cells, 3 days; read-out: HCV Rep 2A EC50. The method in brief:
(§1)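 HCV replicon cells (2000/well) exposed 3 days at 37 °C to ten-point 1:3 compound dilutions in quadruplicate, 0.44% final DMSO. Same wells multiplexed: cytotoxicity first by calcein AM (400 nM, 30 min, fluorescence 490/520 nm), then antireplicon EC50 by Dual-Glo luciferase luminescence.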

Test [4] concerns Dengue serotype 2 New Guinea C (NGC) strain. Kind of test: DENV-2 Huh-7 EC50 (qPCR in Huh7 cells). The settings on record: Dengue virus.
The test system of test [5] is HCV Rep 1B. Kind of test: HCV Rep 1B EC50 (replicon luciferase). The conditions noted are these: Hepatitis C virus, 72 h; Table 4; replicon cells, 3 days; read-out: HCV Rep 1B EC50. The method in brief: as §1

pEC50: −log10 of the molar value. Like-named read-outs stand apart in the source and are kept apart here.

Broadly, the pEC50 is −log10 of the EC50, conventionally taken in molar units. For the compound `CCOC(=O)[C@H](C)N[P@](=O)(OC[C@@]1(C#N)O[C@@H](c2ccc3c(N)ncnn23)[C@H](OC(=O)C(C)C)[C@@H]1OC(=O)C(C)C)Oc1ccccc1` (single isomer, unassigned) [Example 144], the pEC50 is 7.03 in test [1] (96 h, Table 3, H1-HeLa cells, 96 h, read-out: HRV16 HeLa EC50); 7.04 in test [1] (HeLa, read-out: HRV16 HeLa EC50, Table 5 comparative activity, 2',3'-OH vs -OC(O)iPr); 7.51 in test [2]; 5.90 in test [3]; 5.93 in test [4] (DENV2, Huh-7, Table 3, Huh7 cells, 48 hours, read-out: DENV-2 Huh7 EC50); 5.89 in test [4] (Huh-7, read-out: DENV Huh7 EC50). For the same compound, the pEC50 in test [5] was 6.35.
